{
  "source": "paper PMC7275043",
  "about": "(Nature Communications, 2020)",
  "settings": "mouse, in vivo, iv",
  "data": [
    {"substance": "Ac-WDLIQLIVSDGSDLIQLIVSD-NH2 [12B]", "values": [
      {"measurement": "half-life in blood", "result": "< 10", "unit": "min"}
    ]}
  ]
}
